Data as given in patent US10189816B2, “Substituted pyridines as inhibitors of human immunodeficiency virus replication” (priority 2015, dated 2019).
Where two headings read alike, the source gives them in different places.

Tested on: NL-RLuc virus
Assay: Inhibition of HIV replication (NL-RLuc reporter virus in MT-2 cells, luciferase readout)
Assay type: cell-based
Conditions: Human immunodeficiency virus 1, MT2, 120 h
Excerpt: Inhibition of HIV replication: A recombinant NL-RLuc proviral clone was constructed in which a section of the nef gene from NL4-3 was replaced with the Renilla Luciferase gene. This virus is fully infectious and can undergo multiple cycles of replication in cell culture. In addition, the luciferous reporter provides a simple and easy method for quantitating the extent of virus growth and consequently, the antiviral activity of test compounds. The plasmid pNLRLuc contains the proviral NL-Rluc DNA cloned into pUC18 at the PvuII site. The NL-RLuc virus was prepared by transfection of 293T cells with the plasmid pNLRLuc. Transfections were performed using the LipofectAMINE PLUS kit from Invitrogen (Carlsbad, Calif.) according to the manufacturer and the virus generated was titered in MT-2 cells. For susceptibility analyses, the titrated virus was used to infect MT-2 cells in the presence of compound, and after 5 days of incubation, cells were processed and quantitated for virus growth by the amount of expressed luciferase. Assay media was RPMI 1640 supplemented with 10% heat inactivated fetal bovine serum (FBS), 100 units/ml penicillin G/100 units/ml streptomycin, 10 mM HEPES buffer pH 7.55 and 2 mM L-glutamine. The results from at least 2 experiments were used to calculate the EC50 values. Luciferase was quantitated using the Dual Luciferase kit from Promega (Madison, Wis.). Susceptibility of viruses to compounds was determined by incubation in the presence of serial dilutions of the compound. The 50% effective concentration (EC50) was calculated by using the exponential form of the median effect equation where (Fa)=1/[1+(ED50/drug conc.)^m] (Johnson V A, Byington R T. Infectivity Assay. In Techniques in HIV Research. ed. Aldovini A, Walker B D. 71-76. New York: Stockton Press.1990). Activity equal to A refers to a compound having an EC50≤100 nM, while B and C denote compounds having an EC50 between 100 nM and 1 uM (B) or >1 uM (C).

## Cc1nc(C)c([C@H](OC(C)(C)C)C(=O)O)c(N2CCC(C)(C)CC2)c1-c1ccc2c(c1)CCN(Cc1cccc(-c3ccccc3)c1)C2 [Compound 11, (S)-2-(5-(2-([1,1′-biphenyl]-3-ylmethyl)-1,2,3,4-tetrahydroisoquinolin-6-yl)-4-(4,4-dimethylpiperidin-1-yl)-2,6-dimethylpyridin-3-yl)-2-(tert-butoxy)acetic acid]
read-out: Activity
  EC50: < 0.1 µM

## Cc1nc(C)c([C@H](OC(C)(C)C)C(=O)O)c(N2CCC(C)(C)CC2)c1-c1ccc2c(c1)CCN(Cc1ccccc1C(F)(F)F)C2 [Compound 12, (S)-2-(tert-butoxy)-2-(4-(4,4-dimethylpiperidin-1-yl)-2,6-dimethyl-5-(2-(2-(trifluoromethyl)benzyl)-1,2,3,4-tetrahydroisoquinolin-6-yl)pyridin-3-yl)acetic acid]
read-out: Activity
  EC50: < 0.1 µM

## Cc1nc(C)c([C@H](OC(C)(C)C)C(=O)O)c(N2CCC(C)(C)CC2)c1-c1ccc2c(c1)CCN(C(C)c1ccccc1)C2 (stereo partly drawn) [Compound 13, (2S)-2-(tert-butoxy)-2-(4-(4,4-dimethylpiperidin-1-yl)-2,6-dimethyl-5-(2-(1-phenylethyl)-1,2,3,4-tetrahydroisoquinolin-6-yl)pyridin-3-yl)acetic acid]
read-out: Activity
  EC50: < 0.1 µM

## Cc1nc(C)c([C@H](OC(C)(C)C)C(=O)O)c(N2CCC(C)(C)CC2)c1-c1ccc2c(c1)CCN(Cc1ccc(-c3ccccc3)cc1)C2 [Compound 14, (S)-2-(5-(2-([1,1′-biphenyl]-4-ylmethyl)-1,2,3,4-tetrahydroisoquinolin-6-yl)-4-(4,4-dimethylpiperidin-1-yl)-2,6-dimethylpyridin-3-yl)-2-(tert-butoxy)acetic acid]
read-out: Activity
  EC50: < 0.1 µM
read-out: EC50 μM
  EC50: 0.034 µM

## Cc1nc(C)c([C@H](OC(C)(C)C)C(=O)O)c(N2CCC(C)(C)CC2)c1-c1ccc2c(c1)CCN(Cc1cccc(C(F)(F)F)c1C)C2 [Compound 15, (S)-2-(tert-butoxy)-2-(4-(4,4-dimethylpiperidin-1-yl)-2,6-dimethyl-5-(2-(2-methyl-3-(trifluoromethyl)benzyl)-1,2,3,4-tetrahydroisoquinolin-6-yl)pyridin-3-yl)acetic acid]
read-out: Activity
  EC50: < 0.1 µM

## Cc1ccc(CN2CCc3cc(-c4c(C)nc(C)c([C@H](OC(C)(C)C)C(=O)O)c4N4CCC(C)(C)CC4)ccc3C2)cc1C(F)(F)F [Compound 16, (S)-2-(tert-butoxy)-2-(4-(4,4-dimethylpiperidin-1-yl)-2,6-dimethyl-5-(2-(4-methyl-3-(trifluoromethyl)benzyl)-1,2,3,4-tetrahydroisoquinolin-6-yl)pyridin-3-yl)acetic acid]
read-out: Activity
  EC50: < 0.1 µM

## Cc1ccc(CN2CCc3cc(-c4c(C)nc(C)c([C@H](OC(C)(C)C)C(=O)O)c4N4CCC(C)(C)CC4)ccc3C2)cc1F [Compound 18, (S)-2-(tert-butoxy)-2-(4-(4,4-dimethylpiperidin-1-yl)-5-(2-(3-fluoro-4-methylbenzyl)-1,2,3,4-tetrahydroisoquinolin-6-yl)-2,6-dimethylpyridin-3-yl)acetic acid]
read-out: Activity
  EC50: < 0.1 µM

## Cc1ccc(CN2CCc3cc(-c4c(C)nc(C)c([C@H](OC(C)(C)C)C(=O)O)c4N4CCC(C)(C)CC4)ccc3C2)c(C)c1 [Compound 19, (S)-2-(tert-butoxy)-2-(5-(2-(2,4-dimethylbenzyl)-1,2,3,4-tetrahydroisoquinolin-6-yl)-4-(4,4-dimethylpiperidin-1-yl)-2,6-dimethylpyridin-3-yl)acetic acid]
read-out: Activity
  EC50: < 0.1 µM

## Cc1nc(C)c([C@H](OC(C)(C)C)C(=O)O)c(N2CCC(C)(C)CC2)c1-c1ccc2c(c1)CCN(Cc1ccc(F)cc1F)C2 [Compound 20, (S)-2-(tert-butoxy)-2-(5-(2-(2,4-difluorobenzyl)-1,2,3,4-tetrahydroisoquinolin-6-yl)-4-(4,4-dimethylpiperidin-1-yl)-2,6-dimethylpyridin-3-yl)acetic acid]
read-out: Activity
  EC50: < 0.1 µM
